Results published in patent publication US9302999B2, “Substituted triazoles as herbicides” (E. I. DU PONT DE NEMOURS AND COMPANY, priority 2012, dated 2016).

What was measured:
Type in all cases: in vivo
[1] = tested on: nightshade (eastern black nightshade, Solanum ptycanthum); experiment: Test F pre-/postemergence: nightshade; conditions: Preemergence
Excerpt: Seeds of plant species selected from corn (Zea mays), soybean (Glycine max), velvetleaf (Abutilon theophrasti), lambsquarters (Chenopodium album), poinsettia, wild (wild poinsettia, Euphorbia heterophylla), pigweed, palmer (palmer pigweed, Amaranthus palmeri), waterhemp (common waterhemp, Amaranthus rudis), surinam grass (Brachiaria decumbens), crabgrass, Brazil (Brazilian crabgrass, Digitaria horizontalis), panicum, fall (fall panicum Panicum dichotomiflorum), crabgrass, large (large crabgrass, Digitaria sanguinalis), foxtail, giant (giant foxtail, Setaria faberii), foxtail, green (green foxtail Setaria viridis), goosegrass (Eleusine indica), ragweed (common ragweed, Ambrosia elatior), barnyardgrass (Echinochloa crus-galli), sandbur (southern sandbur, Cenchrus echinatus), arrowleaf sida (Sida rhombifolia), ryegrass, Italian (Italian ryegrass, Lolium multiflorum), dayflower, VA (Virginia (VA) dayflower, Commelina virginica), field bindweed (Convolvulus arvensis), cocklebur (common cocklebur, Xanthium strumarium), morningglory (Ipomoea coccinea), nightshade (eastern black nightshade, Solanum ptycanthum), kochia (Kochia scoparia), nutsedge, yellow (yellow nutsedge, Cyperus esculentus), johnsongrass (Sorghum halepense), smartweed (ladysthumb smartweed, Polygonum persicaria), and beggarticks (hairy beggarticks, Bidens pilosa), were planted into a silt loam soil and treated preemergence with test chemicals formulated in a non-phytotoxic solvent mixture which included a surfactant. At the same time, plants selected from these crop and weed species and also pigweed (Amaranthus retroflexus), waterhemp_RES1 (ALS/Triazine resistant common waterhemp, Amaranthus rudis) and waterhemp_RES2 (ALS/HPPD resistant common waterhemp, Amaranthus rudis) were planted in pots containing a planting medium comprising spaghnum peat moss, vermiculite, wetting agent and starter nutrients treated with postemergence applications of some of the test chemicals formulated in the same manner. Plants ranged in height from 2 to 18 cm for postemergence treatments (1- to 4-leaf stage).
(§1) Treated plants and controls were maintained in a greenhouse for 14 to 21 days, after which time all species were compared to controls and visually evaluated. Plant response ratings, summarized in Table E, are based on a scale of 0 to 100 where 0 is no effect and 100 is complete control. A dash (-) response means no test result.

[2] = tested on: Waterhemp; experiment: Test C pre-/postemergence: waterhemp
Excerpt: Seeds of plant species selected from blackgrass (Alopecurus myosuroides), bromegrass, downy (downy bromegrass, Bromus tectorum), foxtail, green (green foxtail, Setaria viridis), ryegrass, Italian (Italian ryegrass, Lolium multiflorum), winter wheat (Triticum aestivum), wild oat (Avena fatua), galium (catchweed bedstraw, Galium aparine), bermudagrass (Cynodon dactylon), surinam grass (Brachiaria decumbens), cocklebur (common cocklebur, Xanthium strumarium), corn (Zea mays), large crabgrass (Digitaria sanguinalis), woolly cupgrass (Eriochloa villosa), foxtail, giant (giant foxtail, Setaria faberii), goosegrass (Eleusine indica), johnsongrass (Sorghum halepense), kochia (Kochia scoparia), lambsquarters (Chenopodium album), morningglory (Ipomoea coccinea), nightshade (eastern black nightshade, Solanum ptycanthum), nutsedge, yellow (yellow nutsedge, Cyperus esculentus), pigweed (Amaranthus retroflexus), ragweed (common ragweed, Ambrosia elation), soybean (Glycine max), common (oilseed) sunflower (Helianthus annuus), Russian thistle (Salsola kali) and velvetleaf (Abutilon theophrasti) were planted into a blend of loam soil and sand and treated preemergence with test chemicals formulated in a non-phytotoxic solvent mixture which included a surfactant.
At the same time, plants selected from these crop and weed species and also barley (winter barley, Hordeum vulgare), canarygrass (Phalaris minor), chickweed (common chickweed, Stellaria media) windgrass (Apera spica-venti) and deadnettle (henbit deadnettle, Lamium amplexicaule) were planted in pots containing Redi-Earth® planting medium (Scotts Company, 14111 Scottslawn Road, Marysville, Ohio 43041) comprising spaghnum peat moss, vermiculite, wetting agent and starter nutrients and treated with postemergence applications of test chemicals formulated in the same manner. Plants ranged in height from 2 to 18 cm (1- to 4-leaf stage) for postemergence treatments.
as §1, with “13” for “14”, “15” for “21”, “C,” for “E,”

[3] = tested on: soybean (Glycine max); experiment: Test E pre-/postemergence: soybean; conditions: scale 0 to 100
Excerpt: (§2) Seeds of plant species selected from corn (Zea mays), soybean (Glycine max), velvetleaf (Abutilon theophrasti), lambsquarters (Chenopodium album), poinsettia, wild (wild poinsettia, Euphorbia heterophylla), pigweed, palmer (palmer pigweed, Amaranthus palmeri), waterhemp (common waterhemp, Amaranthus rudis), smartweed (ladysthumb smartweed, Polygonum persicaria), surinam grass (Brachiaria decumbens), crabgrass, large (large crabgrass, Digitaria sanguinalis), crabgrass, Brazil (Brazilian crabgrass, Digitaria horizontalis), panicum, fall (fall panicum, Panicum dichotomiflorum), foxtail, giant (giant foxtail, Setaria faberii), foxtail, green (green foxtail, Setaria viridis), goosegrass (Eleusine indica), johnsongrass (Sorghum halepense), ragweed (common ragweed, Ambrosia elation), barnyardgrass (Echinochloa crus-galli), sandbur (southern sandbur, Cenchrus echinatus), arrowleaf sida (Sida rhombifolia), ryegrass, Italian (Italian ryegrass, Lolium multiflorum), dayflower, (VA) (Virginia dayflower, Commelina virginica), field bindweed (Convolvulus arvensis), cocklebur (common cocklebur, Xanthium strumarium), morningglory (Ipomoea coccinea), nightshade (eastern black nightshade, Solanum ptycanthum), kochia (Kochia scoparia), nutsedge, yellow (yellow nutsedge, Cyperus esculentus) and beggarticks (hairy beggarticks, Bidens pilosa) were planted into a silt loam soil and treated preemergence with test chemicals formulated in a non-phytotoxic solvent mixture which included a surfactant. At the same time, plants selected from these crop and weed species were planted in pots containing a growing medium comprising spaghnum peat moss, vermiculite, wetting agent and starter nutrients and treated with postemergence applications of some of the test chemicals formulated in the same manner. Plants ranged in height from 2 to 18 cm for postemergence treatments (1- to 4-leaf stage).
as §1

[4] = tested on: barnyardgrass (Echinochloa crus-galli); experiment: Test E pre-/postemergence: barnyardgrass; conditions: scale 0 to 100
Excerpt: as §2, §1

[5] = tested on: arrowleaf sida (Sida rhombifolia); experiment: Test E pre-/postemergence: arrowleaf sida; conditions: scale 0 to 100
Excerpt: as §2, §1

[6] = tested on: dayflower, (VA) (Virginia dayflower, Commelina virginica); experiment: Test E pre-/postemergence: dayflower, (VA); conditions: scale 0 to 100
Excerpt: as §2, §1

[7] = 16 g ai/ha, scale 0 to 100 (0 no effect, 100 complete control)
[8] = Preemergence, 250 g ai/ha, scale 0 to 100, 0 no effect, 100 complete control
[9] = Postemergence, 31 g ai/ha, scale 0 to 100 (0 no effect, 100 complete control)
[10] = 31 g ai/ha, scale 0 to 100 (0 no effect, 100 complete control)

Compound: Cc1nn(-c2ccc(C(F)(F)F)c(F)c2)nc1Cc1ccnc(C(F)(F)F)c1 [Compound 162]
- Plant response rating, Nightshade ([1]; 4 g ai/ha, scale 0 to 100, 0 no effect, 100 complete control): 0
- Plant response rating, Nightshade ([1]; 8 g ai/ha, scale 0 to 100, 0 no effect, 100 complete control): 0
- Plant response rating, Nightshade [1, 7]: 5
- Plant response rating, Waterhemp [2, 8]: 100

Compound: CCCc1nn(-c2ccc(C(F)(F)F)c(F)c2)nc1Oc1ccnc(C(F)(F)F)c1 [Compound 185]
- Plant response rating, Waterhemp [2, 9]: 90

Compound: Cc1nn(-c2ccc(C(F)(F)F)cc2)nc1Cc1ccnc(C(F)(F)F)c1 [Compound 47, 4-[[5-methyl-2-[4-(trifluoromethyl)phenyl]-2H-1,2,3-triazol-4-yl]methyl]-2-(trifluoromethyl)pyridine]
- Plant response rating: Soybean ([3]; Postemergence, 250 g ai/ha): 75
- Plant response rating: Soybean ([3]; Postemergence, 16 g ai/ha): 50
- Plant response rating: Soybean ([3]; Postemergence, 31 g ai/ha): 50
- Plant response rating: Soybean ([3]; Postemergence, 62 g ai/ha): 60
- Plant response rating: Soybean ([3]; Postemergence, 125 g ai/ha): 60
- Plant response rating: Soybean ([3]; Preemergence, 16 g ai/ha): 0
- Plant response rating: Soybean ([3]; Preemergence, 31 g ai/ha): 40
- Plant response rating: Soybean ([3]; Preemergence, 62 g ai/ha): 40
- Plant response rating: Soybean ([3]; Preemergence, 125 g ai/ha): 40
- Plant response rating: Soybean ([3]; Preemergence, 250 g ai/ha): 40
- Plant response rating: Barnyardgrass ([4]; Postemergence, 250 g ai/ha): 60
- Plant response rating: Barnyardgrass ([4]; Postemergence, 16 g ai/ha): 30
- Plant response rating: Barnyardgrass ([4]; Postemergence, 31 g ai/ha): 30
- Plant response rating: Barnyardgrass ([4]; Postemergence, 62 g ai/ha): 40
- Plant response rating: Barnyardgrass ([4]; Postemergence, 125 g ai/ha): 45
- Plant response rating: Barnyardgrass ([4]; Preemergence, 16 g ai/ha): 5
- Plant response rating: Barnyardgrass ([4]; Preemergence, 31 g ai/ha): 30
- Plant response rating: Barnyardgrass ([4]; Preemergence, 62 g ai/ha): 85
- Plant response rating: Barnyardgrass ([4]; Preemergence, 125 g ai/ha): 100
- Plant response rating: Barnyardgrass ([4]; Preemergence, 250 g ai/ha): 100
- Plant response rating: Arrowleaf Sida ([5]; Postemergence, 250 g ai/ha): 85
- Plant response rating: Arrowleaf Sida ([5]; Postemergence, 16 g ai/ha): 50
- Plant response rating: Arrowleaf Sida ([5]; Postemergence, 31 g ai/ha): 60
- Plant response rating: Arrowleaf Sida ([5]; Postemergence, 62 g ai/ha): 70
- Plant response rating: Arrowleaf Sida ([5]; Postemergence, 125 g ai/ha): 80
- Plant response rating: Arrowleaf Sida ([5]; Preemergence, 16 g ai/ha): 0
- Plant response rating: Arrowleaf Sida ([5]; Preemergence, 31 g ai/ha): 20
- Plant response rating: Arrowleaf Sida ([5]; Preemergence, 62 g ai/ha): 40
- Plant response rating: Arrowleaf Sida ([5]; Preemergence, 125 g ai/ha): 60
- Plant response rating: Arrowleaf Sida ([5]; Preemergence, 250 g ai/ha): 95
- Plant response rating: Dayflower, VA ([6]; Postemergence, 250 g ai/ha): 30
- Plant response rating: Dayflower, VA ([6]; Postemergence, 16 g ai/ha): 10
- Plant response rating: Dayflower, VA ([6]; Postemergence, 31 g ai/ha): 10
- Plant response rating: Dayflower, VA ([6]; Postemergence, 62 g ai/ha): 20
- Plant response rating: Dayflower, VA ([6]; Postemergence, 125 g ai/ha): 25

Compound: CCCc1nn(-c2ccc(F)cc2)nc1Cc1ccnc(C(F)(F)F)c1 [Compound 153]
- Plant response rating, Nightshade [1, 7]: 50
- Plant response rating, Nightshade [1, 10]: 50
- Plant response rating, Nightshade ([1]; 125 g ai/ha, scale 0 to 100): 100
- Plant response rating, Nightshade ([1]; 250 g ai/ha, scale 0 to 100): 100
- Plant response rating, Waterhemp [2, 8]: 100

Compound: CCc1nn(-c2ccc(F)cc2)nc1Oc1ccnc(C(F)(F)F)c1 [Compound 166]
- Plant response rating, Waterhemp [2, 9]: 90

Compound: Cc1nn(-c2ccc(F)cc2)nc1Oc1ccnc(C(F)(F)F)c1 [Compound 129, 4-[[2-(4-fluorophenyl)-5-methyl-2H-1,2,3-triazol-4-yl]oxy]-2-(trifluoromethyl)pyridine]
- Plant response rating: Soybean ([3]; Preemergence, 8 g ai/ha): 0
- Plant response rating: Soybean ([3]; Preemergence, 16 g ai/ha): 15
- Plant response rating: Soybean ([3]; Preemergence, 31 g ai/ha): 15
- Plant response rating: Soybean ([3]; Preemergence, 62 g ai/ha): 20
- Plant response rating: Soybean ([3]; Preemergence, 125 g ai/ha): 25
- Plant response rating: Barnyardgrass ([4]; Preemergence, 8 g ai/ha): 0
- Plant response rating: Barnyardgrass ([4]; Preemergence, 16 g ai/ha): 0
- Plant response rating: Barnyardgrass ([4]; Preemergence, 31 g ai/ha): 5
- Plant response rating: Barnyardgrass ([4]; Preemergence, 62 g ai/ha): 10
- Plant response rating: Barnyardgrass ([4]; Preemergence, 125 g ai/ha): 35
- Plant response rating: Arrowleaf Sida ([5]; Preemergence, 8 g ai/ha): 0
- Plant response rating: Arrowleaf Sida ([5]; Preemergence, 16 g ai/ha): 0
- Plant response rating: Arrowleaf Sida ([5]; Preemergence, 31 g ai/ha): 0
- Plant response rating: Arrowleaf Sida ([5]; Preemergence, 62 g ai/ha): 30
- Plant response rating: Arrowleaf Sida ([5]; Preemergence, 125 g ai/ha): 30

Compound: Cc1nn(-c2ccc(F)cc2)nc1Cc1ccnc(C(F)(F)F)c1 [Compound 16, 4-[[2-(4-fluorophenyl)-5-methyl-2H-1,2,3-triazol-4-yl]methyl]-2-(trifluoromethyl)pyridine]
- Plant response rating: Soybean ([3]; Preemergence, 8 g ai/ha): 0
- Plant response rating: Soybean ([3]; Preemergence, 16 g ai/ha): 0
- Plant response rating: Soybean ([3]; Preemergence, 31 g ai/ha): 0
- Plant response rating: Soybean ([3]; Preemergence, 62 g ai/ha): 0
- Plant response rating: Soybean ([3]; Preemergence, 125 g ai/ha): 20
- Plant response rating: Barnyardgrass ([4]; Preemergence, 8 g ai/ha): 0
- Plant response rating: Barnyardgrass ([4]; Preemergence, 16 g ai/ha): 10
- Plant response rating: Barnyardgrass ([4]; Preemergence, 31 g ai/ha): 50
- Plant response rating: Barnyardgrass ([4]; Preemergence, 62 g ai/ha): 98
- Plant response rating: Barnyardgrass ([4]; Preemergence, 125 g ai/ha): 98
- Plant response rating: Arrowleaf Sida ([5]; Preemergence, 8 g ai/ha): 0
- Plant response rating: Arrowleaf Sida ([5]; Preemergence, 16 g ai/ha): 0
- Plant response rating: Arrowleaf Sida ([5]; Preemergence, 31 g ai/ha): 0
- Plant response rating: Arrowleaf Sida ([5]; Preemergence, 62 g ai/ha): 0
- Plant response rating: Arrowleaf Sida ([5]; Preemergence, 125 g ai/ha): 35
- Plant response rating: Dayflower, VA ([6]; Preemergence, 8 g ai/ha): 0
- Plant response rating: Dayflower, VA ([6]; Preemergence, 16 g ai/ha): 0
- Plant response rating: Dayflower, VA ([6]; Preemergence, 31 g ai/ha): 35
- Plant response rating: Dayflower, VA ([6]; Preemergence, 62 g ai/ha): 50
- Plant response rating: Dayflower, VA ([6]; Preemergence, 125 g ai/ha): 85

Compound: Fc1ccc(-n2nc(Cc3ccnc(C(F)(F)F)c3)c(OCC(F)(F)F)n2)cc1 [Compound 142]
- Plant response rating, Nightshade [1, 7]: 65
- Plant response rating, Nightshade [1, 10]: 80
- Plant response rating, Nightshade ([1]; 125 g ai/ha, scale 0 to 100): 98
